According to paper PMC8541353, “A Novel Phenylpyrrolidine Derivative: Synthesis and Effect on Cognitive Functions in Rats with Experimental Ishemic Stroke” (Molecules, 2021):
“And” between values parts separate entries of the source, which are not always exact repeats. Identical values can stand only once. Like-named read-outs stand apart in the source and are kept apart here.

How the values were obtained:
[1] = system: newborn rat cortical neurons; experiment: Glutamate-induced excitotoxicity in newborn rat cortical neuron culture, MTT cell viability; type: cell-based, Wistar rats
Text: To confirm the predicted biological activity, we adopted a glutamate-induced excitotoxicity in the rat cortical neurons model. This work was based on previous findings that glutamate is a well-known excitatory CNS neurotransmitter, which contributes to normal neural transmission, development, differentiation, and plasticity. However, excessive extracellular glutamate levels cause uncontrolled continuous neuron depolarization, which can lead to neuronal death. Excitotoxicity is associated with several neurodegenerative conditions, including Huntington’s disease, Alzheimer’s disease, amyotrophic lateral sclerosis, Parkinson’s disease, and stroke/traumatic brain injury. To see whether compound 1 has neuroprotective effects, we studied the influence of compound 1 in glutamate-treated cortical neurons isolated from newborn Wistar rats (0–1 day).
The primary culture of newborn rat cortical neurons was obtained as previously described. Briefly, cortical neurons were collected from newborn Wistar rats and inoculated onto culture plates (4 × 10^5 cell cm^–2). […]
The cell viability was measured according to the cell ability of tetrazolium dye reduction. […] The formazan absorption at 492 nm was measured using a Zenyth 1100 (Anthos Labtec Instruments, GmbH, Salzburg, Austria) microplate reader.

[2] = Concentration of compound 1 in plasma, striatum and cortex by HPLC-MS (intact and MCAO rats); type: in vivo; conditions: for concentration at 60 min: rat
Experimental: The calculated data are consistent with the experimental data in intact animals. The concentration of compound 1 was determined in the striatum and frontal cortex by HPLC MS. Sixty minutes after the intravenous administration of compound 1, we anesthetized the rats with isoflurane. Afterward, we drained the blood from the heart, opened the chest, dissected the heart muscle, incised the left atrial appendage, and inserted an 18G needle into the right atrium. The pulmonary circulation was washed with 350 mL of 0.9% NaCl containing 1.0 mL of heparin. After the washing procedure, the rat was decapitated and the brain was removed and dissected. We determined the concentrations of compound 1 using an HPLC MS system. The concentration of compound 1 in plasma and the striatum differed by 650 times, and the concentration in plasma and the cortex differed by 630 times (Table 6).
Brain. A brain sample weighing 50 mg (± 2 mg) was placed in 2 mL tubes and 10 μL of an aqueous solution of an internal standard with a concentration of 1 μg mL^−1 was added, then 140 μL of a 1% aqueous solution of formic acid was added and homogenized. Brain samples were ground in a Precellys Evolution homogenizer using 2 mL tubes with ceramic balls at room temperature at a speed of 4500 vibrations min^−1 for 2 cycles of 90 s. After that, 400 μL of chloroform was added. The sample was shaken and centrifuged at 10,621 g for 2 min. The aqueous layer of the liquid was taken and 400 μL of chloroform was added. The sample was shaken and centrifuged at 10,621 g for 2 min. The supernatant was taken for analysis.
Plasma. A total of 10 μL of an aqueous solution of an internal standard with a concentration of 1 mg mL^−1 was added to 50 μL of plasma. A total of10 μL of formic acid and 150 μL of a 0.2% solution of formic acid in methanol was added to the solution. A total of 780 μL of deionized water was added to the resulting solution. The solution was centrifuged at 10,621 g for 2 min. The supernatant was collected and analyzed.
Analyses were performed by a Shimadzu 20 (Shimadzu, Kyoto, Japan) system consisting of HPLC coupled to triple quadrupole mass spectrometer Shimadzu 8040 (Shimadzu, Japan). The chromatographic separation was performed on Discovery C18 column 3 × 150 mm, 5 μm in a gradient mode with mobile phase components A (0.01M ammonium acetate in water) and B (acetonitrile). The gradient cycle was performed in the following way: 0–6 min 5–40% B, 6.01–10 min 40–95%, 10.01–15 min, isocratic elution with 100% B, and then returned to the initial condition. The column temperature was 60 °C. The sample injection volume was 20 μL. The autosampler temperature was 8 °C.
The electrospray ionization (ESI) source was set in positive ionization mode. Multiple reaction monitoring was used to perform mass spectrometric quantification. MS conditions: interface voltage 3,500 V ([…]), nebulizer gas (nitrogen) flow 2.5 l min^−1, drying gas (nitrogen) flow 15 L min^−1, CID gas pressure 230 kPa, DL temperature 200 °C, and heat block temperature 500 °C. High-purity argon was used as collision gas. The precursor and product ions (m/z) of target analytes were 327.10 and 174.10 for compound 1 and 236.10 and 154.15 for internal standard; collision energy was −20 V for both compounds.

[3] = cited from earlier work

| SMILES | Increase of cell survival rate ([1]; 50 µM compound 1 after exposure to 50 µM glutamate, MTT, maximum protective effect) | Neuroprotective effect at higher dose ([1]; 100 μM compound 1) | Increase of BBB permeability after MCAO ([2]; 24 h after MCAO vs intact animals) | Concentration in the brain ([2]; intact animals) | Cplasma/Ccortex ([2]; intact animals) | Cplasma/Cstriatum ([2]; intact animals) | concentration at 60 min ([2]; brain, intravenous, intact animals, read-out: Concentration in the brain) | concentration at 60 min ([2]; brain, intravenous, rats with hemispheric stroke (24 h after MCAO), read-out: Concentration in the brain) | concentration at 60 min ([2]; cortex, iv, intact animals, 60 min after intravenous administration, read-out: Ccortex) | concentration at 60 min ([2]; plasma, intravenous, rats 24 h after MCAO, read-out: Cplasma) | concentration at 60 min ([2]; plasma, iv, intact animals, 60 min after intravenous administration, read-out: Cplasma) | concentration at 60 min ([2]; striatum, iv, intact animals, 60 min after intravenous administration, read-out: Cstriatum) | Cplasma/Ccortex ([2]; rats 24 h after MCAO) | Cplasma/Cstriatum ([2]; rats 24 h after MCAO) | Increase of BBB permeability in animals with ischemic stroke ([3]; animals with ischemic stroke, ref 25 (Paliwal et al. 2018)) | Literature Report of BBB Permeability [3] |
| --- | --- | --- | --- | --- | --- | --- | --- | --- | --- | --- | --- | --- | --- | --- | --- | --- |
| O=C(CN1CC(c2ccccc2)CC1=O)NCCS(=O)(=O)[O-].[K+] (stereo not shown) [Compound 1, potassium 2-[2-(2-oxo-4-phenylpyrrolidin-1-yl)acetamido]ethane-1-sulfonate] | 37% | decreases | ~10 fold | 0.3 μg g^–1 | 630 and 630.9 ± 98.6 | 650 and 651.2 ± 52.0 | 300 ng/g | 2600 ng/g | 255000 ± 78200 ng/g | 13800 ± 3600 ng/mL | 16100 ± 5800 ng/mL | 247000 ± 42600 ng/g | 37.9 ± 6.0 | 89.7 ± 9.4 | – | – |
| NC(=O)CN1CCCC1=O [Piracetam, reference compound] | – | – | – | – | – | – | – | – | – | – | – | – | – | – | 3.5 fold | Very good [21, 22] |
